Four molecules from US7964531B2, “3-phenoxy-4-pyridazinol derivatives and herbicidal composition containing the same” (Mitsui Chemicals Agro, Inc., priority 2001, dated 2011) can be followed below.

Holding throughout (assay type): in vivo
In data set [1] the test system is indian mustard (Brassica juncea (L.) Czern. et Coss). The data set is described as follows: Test Example 2: herbicidal effects (soil treatment). The settings on record: dosage 5 kg/a; soil treatment the day after seeding; judged after 21 days. The text has this:
(§1) Judgment Standard • 0: Growth inhibition rate; 0 to 10% • 1: Growth inhibition rate; 11 to 30% • 2: Growth inhibition rate; 31 to 50% • 3: Growth inhibition rate; 51 to 70% • 4: Growth inhibition rate; 71 to 90% • 5: Growth inhibition rate; 91 to 100%.
(§2) Upland soil was filled in 150 cm^2 pot, and seeds of barnyardgrass and indian mustard (Brassica juncea (L.) Czern. et Coss) were sowed, and grown in a greenhouse. At the next day of seeding, a predetermined chemical dosage of the wettable powder prepared in accordance with Preparation example 1 was diluted in water and applied to soil surface. After 21 days from the treatment, herbicidal effects were judged in accordance with the judgment standard of Test example 1, and the results were shown in Table 3.

In data set [2] the test system is barnyardgrass. The description is as above. The note with it: dosage 5 kg/a; soil treatment the day after seeding; judged after 21 days.
Text: as §1, §2

In data set [3] the test system is transplanted paddy-field rice. The data set is described as follows: Test Example 1: crop injury against transplanted paddy-field rice. The note with it: wettable powder applied 3 days after transplanting, judged after 25 days. In outline: (§3)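 Greenhouse, flooded paddy soil; weeds from seed (top 1 cm), C. serotinus from germinated tubers, rice transplanted at 2.2-leaf stage. WP diluted in water, applied to pot day 3 post-transplant. Scored day 25 post-treatment, 0–5 inhibition scale.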

Data set [4] deals with transplanted paddy-field rice. The data set is described as follows: Test Example 4: crop injury against transplanted paddy-field rice. The settings on record: no second compound, after 25 days. In outline:
(§4)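 Flooded greenhouse pots of paddy soil were sown in the top 1 cm with dormancy-broken weed seeds and planted with tubers, and 2.2-leaf rice was transplanted. Three days later, water-diluted wettable powder was applied at set dosages, and growth inhibition was rated 25 days after that on a 0 (0–15%) to 5 (96–100%) scale.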

Data set [5] has as its system annual broad-leaved weeds (Lindernia spp., Rotala indica). The data set is described as follows: Test Example 1: herbicidal effects, paddy-field pot test. The settings on record: wettable powder applied 3 days after transplanting, judged after 25 days. The procedure, abridged:
as §3

Data set [6] concerns Scirpus joncoides. The description is as above. The note with it: wettable powder applied 3 days after transplanting, judged after 25 days. In outline: as §3
For data set [7], the system named is Cyperus serotinus. Described as above. The note with it: wettable powder applied 3 days after transplanting, judged after 25 days. In outline: as §3
In data set [8] the test system is barnyardgrass (Echinochloa oryzicola Vasing.). The data set is described as above. The settings on record: wettable powder applied 3 days after transplanting, judged after 25 days. In outline: as §3
Data set [9] deals with Eleocharis kuroguwai. The data set is described as follows: Test Example 4: herbicidal effects of mixed wettable powder, paddy-field pot test. The note with it: no second compound, after 25 days. The procedure, abridged:
as §4

For data set [10], the system named is Sagittaria pygmaea. The data set is described as above. The settings on record: no second compound, after 25 days. The procedure, abridged:
as §4

Data set [11] deals with Scirpus joncoides. The data set is described as above. The note with it: no second compound, after 25 days. In outline: as §4
For data set [12], the system named is Cyperus serotinus. The description is as above. The note with it: no second compound, after 25 days. The procedure, abridged:
as §4

Data set [13] concerns barnyardgrass (Echinochloa oryzicola Vasing.). The data set is described as above. The note with it: no second compound, after 25 days. The procedure, abridged:
as §4

Data set [14] relates to annual broad-leaved weeds (Lindernia spp. and Rotala indica). The description is as above. The note with it: no second compound, after 25 days. In outline: as §4

Consider `Oc1cc(Cl)nnc1Oc1cccc2c1CCC2` [Example 171], for which the “Herbicidal effects indian mustard” value in data set [1] was 5 (Growth inhibition rate; 91 to 100%). Besides, in data set [2], the “Herbicidal effects Barnyard-grass” value was 5 (Growth inhibition rate; 91 to 100%). For the same molecule, the “Crop injury against transplanted rice” value is reported as 0 (Growth inhibition rate; 0 to 10%) in data set [3] (chemical dosage 10 g/a), 0 (Growth inhibition rate; 0 to 10%) in data set [3] (chemical dosage 20 g/a), 0 (Growth-inhibition rate; 0 to 15%) in [4] (derivative 5 g/a) and 0 (Growth-inhibition rate; 0 to 15%) in data set [4] (derivative 10 g/a). The “Herbicidal effects Broad leaf” value is listed as 5 (Growth inhibition rate; 91 to 100%) in data set [5] (chemical dosage 10 g/a), 5 (Growth inhibition rate; 91 to 100%) in [5] (chemical dosage 20 g/a), 5 (Growth inhibition rate; 96 to 100%) in [14] (derivative 5 g/a) and 5 (Growth inhibition rate; 96 to 100%) in data set [14] (derivative 10 g/a). In addition, the “Herbicidal effects Scirpus joncoides” value was 5 (Growth inhibition rate; 91 to 100%) in data set [6] (chemical dosage 10 g/a), 5 (Growth inhibition rate; 91 to 100%) in data set [6] (chemical dosage 20 g/a), 5 (Growth inhibition rate; 96 to 100%) in [11] (derivative 5 g/a) and 5 (Growth inhibition rate; 96 to 100%) in [11] (derivative 10 g/a). The “Herbicidal effects Cyperus serotinus” value is 5 (Growth inhibition rate; 91 to 100%) in data set [7] (chemical dosage 10 g/a), 5 (Growth inhibition rate; 91 to 100%) in [7] (chemical dosage 20 g/a), 5 (Growth inhibition rate; 96 to 100%) in data set [12] (derivative 5 g/a) and 5 (Growth inhibition rate; 96 to 100%) in data set [12] (derivative 10 g/a). For the same molecule, the “Herbicidal effects Barnyard grass” value was 3 (Growth inhibition rate; 51 to 70%) in data set [8] (chemical dosage 10 g/a), 4 (Growth inhibition rate; 71 to 90%) in data set [8] (chemical dosage 20 g/a), 2 (Growth inhibition rate; 36 to 55%) in data set [13] (derivative 5 g/a) and 3 (Growth inhibition rate; 56 to 75%) in [13] (derivative 10 g/a). For the same molecule, the figures for the “Herbicidal effects Eleocharis kuroguwai” value in [9] (derivative 5 g/a) and in [9] (derivative 10 g/a) were 2 (Growth inhibition rate; 36 to 55%) and 3 (Growth inhibition rate; 56 to 75%), respectively. In addition, the “Herbicidal effects Sagittaria pygmaea” value in data set [10] (derivative 5 g/a) and in data set [10] (derivative 10 g/a) was 5 (Growth inhibition rate; 96 to 100%) each time.
In the case of `Oc1cc(Cl)nnc1Oc1c(Cl)cccc1C1CC1` [Example 245], the “Herbicidal effects indian mustard” value in data set [1] is listed as 5 (Growth inhibition rate; 91 to 100%). The “Herbicidal effects Barnyard-grass” value in data set [2] was 3 (Growth inhibition rate; 51 to 70%). Besides, the “Crop injury against transplanted rice” value in [3] (chemical dosage 10 g/a) is given as 0 (Growth inhibition rate; 0 to 10%); in [3] (chemical dosage 20 g/a) it was 0 (Growth inhibition rate; 0 to 10%); in [4] (derivative 5 g/a) it was 0 (Growth-inhibition rate; 0 to 15%); in data set [4] (derivative 10 g/a), 0 (Growth-inhibition rate; 0 to 15%). Moreover, the “Herbicidal effects Broad leaf” value was 5 (Growth inhibition rate; 91 to 100%) in data set [5] (chemical dosage 10 g/a), 5 (Growth inhibition rate; 91 to 100%) in [5] (chemical dosage 20 g/a), 5 (Growth inhibition rate; 96 to 100%) in [14] (derivative 5 g/a) and 5 (Growth inhibition rate; 96 to 100%) in data set [14] (derivative 10 g/a). The “Herbicidal effects Scirpus joncoides” value is on record as 5 (Growth inhibition rate; 91 to 100%) in data set [6] (chemical dosage 10 g/a), 5 (Growth inhibition rate; 91 to 100%) in [6] (chemical dosage 20 g/a), 5 (Growth inhibition rate; 96 to 100%) in data set [11] (derivative 5 g/a) and 5 (Growth inhibition rate; 96 to 100%) in data set [11] (derivative 10 g/a). Also, the “Herbicidal effects Cyperus serotinus” value was 5 (Growth inhibition rate; 91 to 100%) in data set [7] (chemical dosage 10 g/a), 5 (Growth inhibition rate; 91 to 100%) in data set [7] (chemical dosage 20 g/a), 4 (Growth inhibition rate; 7.6 to 95%) in [12] (derivative 5 g/a) and 5 (Growth inhibition rate; 96 to 100%) in data set [12] (derivative 10 g/a). For the same molecule, the “Herbicidal effects Barnyard grass” value is listed as 4 (Growth inhibition rate; 71 to 90%) in data set [8] (chemical dosage 10 g/a), 4 (Growth inhibition rate; 71 to 90%) in data set [8] (chemical dosage 20 g/a), 3 (Growth inhibition rate; 56 to 75%) in data set [13] (derivative 5 g/a) and 4 (Growth inhibition rate; 7.6 to 95%) in data set [13] (derivative 10 g/a). For the same molecule, the entries for the “Herbicidal effects Eleocharis kuroguwai” value in [9] (derivative 5 g/a) and in data set [9] (derivative 10 g/a) were 0 (Growth-inhibition rate; 0 to 15%) and 1 (Growth inhibition rate; 16 to 35%), respectively. Besides, the entries for the “Herbicidal effects Sagittaria pygmaea” value in [10] (derivative 5 g/a) and in data set [10] (derivative 10 g/a) were 4 (Growth inhibition rate; 7.6 to 95%) and 5 (Growth inhibition rate; 96 to 100%), respectively.
For `Cc1ccc2ccoc2c1Oc1nnc(Cl)cc1O` [Example 310], the “Herbicidal effects indian mustard” value in data set [1] is listed as 5 (Growth inhibition rate; 91 to 100%). Also, the “Herbicidal effects Barnyard-grass” value in data set [2] is listed as 5 (Growth inhibition rate; 91 to 100%). In addition, the “Crop injury against transplanted rice” value in data set [3] (chemical dosage 10 g/a) and in [3] (chemical dosage 20 g/a) was 0 (Growth inhibition rate; 0 to 10%) in each case. Moreover, the “Herbicidal effects Broad leaf” value in data set [5] (chemical dosage 10 g/a) and in [5] (chemical dosage 20 g/a) was 5 (Growth inhibition rate; 91 to 100%) in each case. For the same molecule, the “Herbicidal effects Scirpus joncoides” value in data set [6] (chemical dosage 10 g/a) and in [6] (chemical dosage 20 g/a) was 5 (Growth inhibition rate; 91 to 100%) each time. Besides, the “Herbicidal effects Cyperus serotinus” value in data set [7] (chemical dosage 10 g/a) and in data set [7] (chemical dosage 20 g/a) was 5 (Growth inhibition rate; 91 to 100%) throughout. In addition, the results for the “Herbicidal effects Barnyard grass” value in data set [8] (chemical dosage 10 g/a) and in data set [8] (chemical dosage 20 g/a) were 4 (Growth inhibition rate; 71 to 90%) and 5 (Growth inhibition rate; 91 to 100%), respectively.
For the molecule `Oc1cc(Cl)nnc1Oc1c(Br)ccc2ccoc12` [Example 309], the “Herbicidal effects indian mustard” value in [1] is reported as 5 (Growth inhibition rate; 91 to 100%). In addition, in data set [2], the “Herbicidal effects Barnyard-grass” value was 5 (Growth inhibition rate; 91 to 100%). Besides, the “Crop injury against transplanted rice” value is on record as 2 (Growth inhibition rate; 31 to 50%) in [3] (chemical dosage 10 g/a) and 5 (Growth inhibition rate; 91 to 100%) in data set [3] (chemical dosage 20 g/a). Also, the “Herbicidal effects Broad leaf” value in data set [5] (chemical dosage 10 g/a) and in [5] (chemical dosage 20 g/a) was 5 (Growth inhibition rate; 91 to 100%) in each case. The “Herbicidal effects Scirpus joncoides” value in data set [6] (chemical dosage 10 g/a) and in data set [6] (chemical dosage 20 g/a) was 5 (Growth inhibition rate; 91 to 100%) each time. In addition, the “Herbicidal effects Cyperus serotinus” value in [7] (chemical dosage 10 g/a) and in data set [7] (chemical dosage 20 g/a) was 5 (Growth inhibition rate; 91 to 100%) throughout. Also, the “Herbicidal effects Barnyard grass” value in data set [8] (chemical dosage 10 g/a) was 4 (Growth inhibition rate; 71 to 90%); in data set [8] (chemical dosage 20 g/a), 5 (Growth inhibition rate; 91 to 100%).
